Assay [1] concerns HIF1a protein in H9c2 rat cardiomyocytes. Put plainly: Cell-based HIF-alpha stabilization assay (inhibition of PHD in cells). The note with it: Rattus norvegicus, H9c2, 24 h, 24 hrs compound incubation, HIF1a protein by ELISA, read-out: Inhibition of PHD in cells (pEC50) (converted). In outline:
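Rat H9c2 cardiomyocytes, cultured 24 h, were treated 24 h with an 11-point serial dilution of compound. HIF1a in whole-cell lysates was quantified by ELISA as % of the maximal desferrioxamine response. EC50 came from curve fitting; EC50pos is the concentration reaching 50% of the desferrioxamine maximum.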
In general terms: An ELISA detects its analyte on a solid surface through an enzyme-linked reagent.

The target in assay [2] is PHD2 enzyme (residues 181-417) (Homo sapiens (Human), UniProt Q9GZT9). Put plainly: Inhibition of PHD enzyme (LC/MS peptide hydroxylation assay). Format: biochemical. To be noted: PHD2 (residues 181-417) 5 nM, 60 min pre-incubation, -log(IC50), IC50 molar. In outline: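 PHD2 (5 nM final) preincubated with inhibitor 60 min at RT in 50 mM HEPES, 50 mM KCl, 0.5 mM TCEP, 2 uM FeCl2, 0.1 mg/ml BSA, pH 7.3. Reaction started with biotin-peptide (1 uM), 2-oxoglutarate (2 uM), ascorbate (1 mM), quenched at 60 min; hydroxylated product by LC/MS, reported as pIC50.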
Chain of PHD2 enzyme (residues 181-417) (Q9GZT9 181-417): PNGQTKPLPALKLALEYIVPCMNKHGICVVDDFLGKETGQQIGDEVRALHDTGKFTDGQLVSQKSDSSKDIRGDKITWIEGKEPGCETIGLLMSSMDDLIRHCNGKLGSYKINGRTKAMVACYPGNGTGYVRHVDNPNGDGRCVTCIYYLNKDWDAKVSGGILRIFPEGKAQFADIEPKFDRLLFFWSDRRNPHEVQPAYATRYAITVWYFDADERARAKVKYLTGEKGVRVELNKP

Molecules are shown by their SMILES.

The values that follow come from patent publication US10407409B2, “6-(5-hydroxy-1H-pyrazol-1-yl)nicotinamide inhibitors of PHD” (Takeda Pharmaceutical Company Limited, priority 2013, dated 2019).

As to `CCNC(=O)c1ccc(-n2ncc(-c3ccnc(OC)c3)c2O)nc1` [Example 34, N-ethyl-6-(5-hydroxy-4-(2-methoxypyridin-4-yl)-1H-pyrazol-1-yl)nicotinamide], the EC50 in assay [1] was 513 nM. Also, in assay [2], the “PHD Inhibition (pIC50)” value stood at 8.
Taken in the same sequence, the figures for `Cc1cc(C#N)ccc1-c1cnn(-c2ccc(C(=O)N3C[C@H]4CN(C)C[C@H]4C3)cn2)c1O` [Example 292, 4-(5-hydroxy-1-(5-((3aR,6aS)-5-methyloctahydropyrrolo[3,4-c]pyrrole-2-carbonyl)pyridin-2-yl)-1H-pyrazol-4-yl)-3-methylbenzonitrile] were 407 nM and 8.04.
For the compound `Cc1cc(C#N)ccc1-c1cnn(-c2ccc(C(=O)NCCCOCC3CC3)cn2)c1O` [Example 70, 6-(4-(4-cyano-2-methylphenyl)-5-hydroxy-1H-pyrazol-1-yl)-N-(3-(cyclopropylmethoxy)propyl)nicotinamide], the EC50 in assay [1] is 229 nM. In addition, the “PHD Inhibition (pIC50)” value in assay [2] is on record as 7.17.
Taken in the same sequence, the figures for `CCNC(=O)c1ccc(-n2ncc(-c3ccc(C#N)cc3C)c2O)nc1` [Example 108] were 110 nM and 8.3.
Taken in the same sequence, the figures for `COc1cc(-c2cnn(-c3ccc(C(=O)NCCO)cn3)c2O)ccn1` [Example 25, 6-(5-hydroxy-4-(2-methoxypyridin-4-yl)-1H-pyrazol-1-yl)-N-(2-hydroxyethyl)nicotinamide] were 4470 nM and 7.1.
Taken in the same sequence, the figures for `C[C@H](NC(=O)c1ccc(-n2ncc(-c3ccc(C#N)cc3)c2O)nc1)C(F)(F)F` [Example 171, (S)-6-(4-(4-cyanophenyl)-5-hydroxy-1H-pyrazol-1-yl)-N-(1,1,1-trifluoropropan-2-yl)nicotinamide] were 1450 nM and 7.18.
With `CCOc1cc(-c2cnn(-c3ccc(C(=O)NCCCOC)cn3)c2O)ccn1` [Example 218, 6-(4-(2-ethoxypyridin-4-yl)-5-hydroxy-1H-pyrazol-1-yl)-N-(3-methoxypropyl)nicotinamide], in assay [1], the EC50 is 4680 nM. Besides, the “PHD Inhibition (pIC50)” value in assay [2] was 7.9.
On to `Cc1cc(C#N)c(F)cc1-c1cnn(-c2ccc(C(=O)N3CCN(C)[C@H](C)C3)cn2)c1O` [Example 401, (R)-4-(1-(5-(3,4-dimethylpiperazine-1-carbonyl)pyridin-2-yl)-5-hydroxy-1H-pyrazol-4-yl)-2-fluoro-5-methylbenzonitrile], for which, in assay [1], the EC50 is 1580 nM. Further, the “PHD Inhibition (pIC50)” value in assay [2] is 8.44.
On to `Cc1cc(C#N)ccc1-c1cnn(-c2ccc(C(=O)N3CC(N(C)C4CCC4)C3)cn2)c1O` [Example 297, 4-(1-(5-(3-(cyclobutyl(methyl)amino)azetidine-1-carbonyl)pyridin-2-yl)-5-hydroxy-1H-pyrazol-4-yl)-3-methylbenzonitrile], for which, in assay [1], the EC50 was 525 nM. For the same compound, the “PHD Inhibition (pIC50)” value in assay [2] stood at 8.39.
Taken in the same sequence, the figures for `CO[C@H](C)CCNC(=O)c1ccc(-n2ncc(-c3ccc(C#N)cc3C)c2O)nc1` [Example 371, (R)-6-(4-(4-cyano-2-methylphenyl)-5-hydroxy-1H-pyrazol-1-yl)-N-(3-methoxybutyl)nicotinamide] were 832 nM and 8.20.
For `COCC(C)CNC(=O)c1ccc(-n2ncc(-c3ccc(C#N)cc3)c2O)nc1` (centres unmarked) [Example 146, 6-(4-(4-cyanophenyl)-5-hydroxy-1H-pyrazol-1-yl)-N-(3-methoxy-2-methylpropyl)nicotinamide], the EC50 in assay [1] is 692 nM. In addition, the “PHD Inhibition (pIC50)” value in assay [2] is given as 8.3.
With `COc1cc(-c2cnn(-c3ccc(C(=O)NC(C)(C)CN(C)C)cn3)c2O)ccn1` [Example 51, N-(1-(dimethylamino)-2-methylpropan-2-yl)-6-(5-hydroxy-4-(2-methoxypyridin-4-yl)-1H-pyrazol-1-yl)nicotinamide], the EC50 in assay [1] is 1820 nM. The “PHD Inhibition (pIC50)” value in assay [2] worked out at 7.3.
For `COCCCNC(=O)c1ccc(-n2ncc(-c3ccc(=O)n(C)c3)c2O)nc1` [Example 216, 6-(5-hydroxy-4-(1-methyl-6-oxo-1,6-dihydropyridin-3-yl)-1H-pyrazol-1-yl)-N-(3-methoxypropyl)nicotinamide], the EC50 in assay [1] was 5250 nM. For the same compound, the “PHD Inhibition (pIC50)” value in assay [2] amounted to 7.1.
Taken in the same sequence, the figures for `CC[C@H](CC#N)NC(=O)c1ccc(-n2ncc(-c3ccc(C#N)cc3)c2O)nc1` [Example 74, (R)—N-(1-cyanobutan-2-yl)-6-(4-(4-cyanophenyl)-5-hydroxy-1H-pyrazol-1-yl)nicotinamide] were 3160 nM and 7.05.
Taken in the same sequence, the figures for `Cc1cc(C#N)ccc1-c1cnn(-c2ccc(C(=O)NCCCn3cccn3)cn2)c1O` [Example 141] were 407 nM and 8.3.
`Cc1cc(C#N)ccc1-c1cnn(-c2ccc(C(=O)N3CCN(C(C)C)[C@@H](C)C3)cn2)c1O` [Example 393, (S)-4-(5-hydroxy-1-(5-(4-isopropyl-3-methylpiperazine-1-carbonyl)pyridin-2-yl)-1H-pyrazol-4-yl)-3-methylbenzonitrile]: the EC50 in assay [1] was 1450 nM. Also, in assay [2] (read-out: PHD Inhibition (pIC50) (converted)), the IC50 is 13.8 nM.
Regarding `CN(C)CCNC(=O)c1ccc(-n2ncc(-c3ccc(C#N)cc3)c2O)nc1` [Example 268, 6-(4-(4-cyanophenyl)-5-hydroxy-1H-pyrazol-1-yl)-N-(2-(dimethylamino)ethyl)nicotinamide], the EC50 in assay [1] is 1950 nM. Also, in assay [2], the “PHD Inhibition (pIC50)” value was 6.32.
In the case of `CC[C@H](C)NC(=O)c1ccc(-n2ncc(-c3ccnc(OC)c3)c2O)nc1` [Example 10, (S)—N-(sec-butyl)-6-(5-hydroxy-4-(2-methoxypyridin-4-yl)-1H-pyrazol-1-yl)nicotinamide], the EC50 in assay [1] was 676 nM. Besides, in assay [2], the “PHD Inhibition (pIC50)” value came out at 7.09.
`Cc1cc(C#N)ccc1-c1cnn(-c2ccc(C(=O)NC3CCC3)cn2)c1O` [Example 134, 6-(4-(4-cyano-2-methylphenyl)-5-hydroxy-1H-pyrazol-1-yl)-N-cyclobutylnicotinamide]: the EC50 in assay [1] is 339 nM. In assay [2], the “PHD Inhibition (pIC50)” value turned out to be 7.21.
For the compound `Cc1cc(C#N)ccc1-c1cnn(-c2ccc(C(=O)NCCCN3CCCC3)cn2)c1O` [Example 105, 6-(4-(4-cyano-2-methylphenyl)-5-hydroxy-1H-pyrazol-1-yl)-N-(3-(pyrrolidin-1-yl)propyl)nicotinamide], the EC50 in assay [1] is 61.7 nM. For the same compound, in assay [2], the “PHD Inhibition (pIC50)” value is given as 8.
With `COCCC1(NC(=O)c2ccc(-n3ncc(-c4ccc(C#N)cc4C)c3O)nc2)CC1` [Example 215, 6-(4-(4-cyano-2-methylphenyl)-5-hydroxy-1H-pyrazol-1-yl)-N-(1-(2-methoxyethyl)cyclopropyl)nicotinamide], in assay [1], the EC50 was 257 nM. In assay [2], the “PHD Inhibition (pIC50)” value is listed as 7.21.
Consider `Cc1cc(C#N)ccc1-c1cnn(-c2ccc(C(=O)NCC3CCN(C)C3)cn2)c1O` (centres unmarked) [Example 96, 6-(4-(4-cyano-2-methylphenyl)-5-hydroxy-1H-pyrazol-1-yl)-N-((1-methylpyrrolidin-3-yl)methyl)nicotinamide], for which the EC50 in assay [1] is 56.2 nM. Further, in assay [2], the “PHD Inhibition (pIC50)” value was 8.
Take `CCN1CCN(C(=O)c2ccc(-n3ncc(-c4ccc(C#N)c(C)c4C)c3O)nc2)CC1` [Example 309, 4-(1-(5-(4-ethylpiperazine-1-carbonyl)pyridin-2-yl)-5-hydroxy-1H-pyrazol-4-yl)-2,3-dimethylbenzonitrile]: in assay [1], the EC50 was 2630 nM. Moreover, the “PHD Inhibition (pIC50)” value in assay [2] is listed as 7.97.
Taken in the same sequence, the figures for `Cc1cc(C#N)ccc1-c1cnn(-c2ccc(C(=O)N3CCN4CCC3CC4)cn2)c1O` [Example 428, (S)-4-(1-(5-(1,4-diazabicyclo[3.2.2]nonane-4-carbonyl)pyridin-2-yl)-5-hydroxy-1H-pyrazol-4-yl)-3-methylbenzonitrile] were 501 nM and 7.88.
Taken in the same sequence, the figures for `COCC1(NC(=O)c2ccc(-n3ncc(-c4ccc(C#N)cc4)c3O)nc2)CC1` [Example 201, 6-(4-(4-cyanophenyl)-5-hydroxy-1H-pyrazol-1-yl)-N-(1-(methoxymethyl)cyclopropyl)nicotinamide] were 776 nM and 7.29.
Taken in the same sequence, the figures for `C[C@H](NC(=O)c1ccc(-n2ncc(-c3ccc(C#N)cc3)c2O)nc1)C1CCOCC1` [Example 173, (S)-6-(4-(4-cyanophenyl)-5-hydroxy-1H-pyrazol-1-yl)-N-(1-(tetrahydro-2H-pyran-4-yl)ethyl)nicotinamide] were 1100 nM and 7.21.
Take `COCC1CCN(C(=O)c2ccc(-n3ncc(-c4ccc(C#N)cc4C)c3O)nc2)CC1` [Example 248, 4-(5-hydroxy-1-(5-(4-(methoxymethyl)piperidine-1-carbonyl)pyridin-2-yl)-1H-pyrazol-4-yl)-3-methylbenzonitrile]: the EC50 in assay [1] is 251 nM. The “PHD Inhibition (pIC50)” value in assay [2] is 8.3.
Taken in the same sequence, the figures for `N#Cc1ccc(-c2cnn(-c3ccc(C(=O)NC4CCC(F)(F)CC4)cn3)c2O)cc1` [Example 84, 6-(4-(4-cyanophenyl)-5-hydroxy-1H-pyrazol-1-yl)-N-(4,4-difluorocyclohexyl)nicotinamide] were 2240 nM and 6.91.
